In ChEMBL document CHEMBL4680267, “Design, synthesis and biological evaluation of 7-substituted 4-phenyl-6H-imidazo[1,5-a]thieno[3,2-f] [1,4]diazepines as safe anxiolytic agents” (Eur J Med Chem, 2020):

Columns and labels:
[1] = Displacement of [3H]-Flumazenil from Central type benzodiazepine receptor in rat cerebral cortex membrane incubated for 90 mins by liquid scintillation counting method; type: cell membranes
[2] = Effect on locomotor activity in mouse at 30 mg/kg, po measured after 30 mins by hole-board test; type: ADME, organism-based; settings: in vivo, 0.5 h
[3] = Effect on motor coordination in mouse assessed as number of falls from rotarod at 30 mg/kg, po measured for 30 mins by rotarod test (reference value: 2.2 +/- 0.2); type: ADME, organism-based; settings: in vivo, 0.5 h
[4] = tested on: Mus musculus; test: Anti-amnesic activity in mouse model of scopolamine-induced cognitive deficit assessed as latency time to enter dark compartment in training session at 30 mg/kg, po and measured for 30 mins by passive avoidance test (reference value: 14.2 +/- 2.2 secs); type: functional; settings: 0.5 h
[5] = tested on: Mus musculus; test: Anticonvulsive activity in mouse assessed as protection against pentylenetetrazole-induced seizure at 30 mg/kg, po administered 30 mins prior to pentylenetetrazole challenge and measured for 30 mins; type: functional; settings: time 60 min, 1 h
[6] = tested on: Mus musculus; test: Anti-amnesic activity in mouse model of scopolamine-induced cognitive deficit assessed as latency time to enter dark compartment in training session at 10 mg/kg, po and mesured for 30 mins by passive avoidance test (reference value: 14.2 +/- 2.2 secs); type: functional; settings: 0.5 h
[7] = tested on: Mus musculus; test: Anxiolytic activity in mouse assessed as increase in time spent in lighted compartment at 30 mg/kg, po measured after 30 mins by light-dark box test (reference value: 122.3 +/- 8.5 secs); type: functional; settings: 0.5 h
[8] = tested on: Mus musculus; test: Anti-amnesic activity in mouse model of scopolamine-induced cognitive deficit assessed as latency time to enter dark compartment in retension session at 30 mg/kg, po and measured after 24 hrs by passive avoidance test (reference value: 46.2 +/- 8.9 secs); type: functional
[9] = tested on: Mus musculus; test: Anxiolytic activity in mouse assessed as increase in time spent in lighted compartment at 10 mg/kg, po measured after 30 mins by light-dark box test (reference value: 122.3 +/- 8.5 secs); type: functional; settings: 0.5 h
[10] = species: Rattus norvegicus; test: Displacement of [3H]-Flumazenil from Central type benzodiazepine receptor in rat cerebral cortex membrane at 10 uM incubated for 90 mins by liquid scintillation counting method relative to control; type: cell membranes
[11] = Hypnotic activity in mouse assessed as phenobarbital induced sleep endurance time at 30 mg/kg, po administered 30 mins prior to phenobarbital challenge and measured for 30 mins (reference value: 27.4 +/- 2.3 min); type: ADME, organism-based; settings: in vivo, 1 h, time 60 min
[12] = tested on: Mus musculus; test: Anti-amnesic activity in mouse model of scopolamine-induced cognitive deficit assessed as latency time to enter dark compartment in retension session at 10 mg/kg, po and measured after 24 hrs by passive avoidance test (reference value: 46.2 +/- 8.9 secs); type: functional
[13] = Hypnotic activity in mouse assessed as phenobarbital induced sleep induction time at 30 mg/kg, po administered 30 mins prior to phenobarbital challenge and measured for 30 mins (reference value: 4.4 +/- 1.1 min); type: ADME, organism-based; settings: in vivo, 1 h, time 60 min
[14] = Effect on explorative activity in mouse assessed as exploration of holes at 30 mg/kg, po measured after 30 mins by hole-board test; type: ADME, organism-based; settings: in vivo, 0.5 h
[15] = Displacement of [3H]flunitrazepam from Benzodiazepine receptor in Sprague-Dawley rat cerebral cortex membrane measured after 30 mins by liquid scintillation spectrometry analysis; type: cell membranes
[16] = tested on: Mus musculus; test: Anticonvulsive activity in mouse assessed as protection against pentylenetetrazole-induced seizure at 10 mg/kg, po administered 30 mins prior to pentylenetetrazole challenge and measured for 30 mins; type: functional; settings: time 60 min, 1 h
[17] = Displacement of [3H]diazepam from Benzodiazepine receptor in rat cerebral cortex membrane; type: cell membranes
[18] = Hypnotic activity in mouse assessed as phenobarbital induced sleep endurance time at 2 mg/kg, sc administered 30 mins prior to phenobarbital challenge and measured for 30 mins (reference value: 27.4 +/- 2.3 min); type: ADME, organism-based; settings: in vivo, 1 h, time 60 min
[19] = Displacement of [3H]flunitrazepam from Benzodiazepine receptor in Sprague-Dawley rat cerebral cortex membrane preincubated for 10 mins followed by [3H]flunitrazepam addition and measured after 60 mins by liquid scintillation spectroscopy analysis; type: cell membranes

Row | Structure (SMILES) | IC50 [1] [nM] | Activity [2] | Activity [3] | Time [4] [s] | Activity [5] [%] | Time [6] [s] | Time [7] [s] | Time [8] [s] | Time [9] [min] | inhibition [10] [%] | Time [11] [min] | Time [12] [s] | Time [13] [min] | Activity [14] | IC50 [15] [nM] | Activity [16] [%] | IC50 [17] [nM] | Time [18] [min] | IC50 [19] [nM]
1 | CCOC(=O)c1ncn2c1CN=C(c1ccccc1)c1ccsc1-2 | 11.7 | 28.2 | 1.9 | 18.1 | 10 | 13.6 | 166.2 | 88.6 | 131.3 | > 80 | 23.8 | 54.1 | 3.9 | 19.1 |  |  |  |  | 
2 | Cc1nnc2n1-c1sc(Br)cc1C(c1ccccc1Cl)=NC2 [BROTIZOLAM] |  |  |  |  |  |  |  |  |  |  |  |  |  |  | 2.6 |  |  |  | 
3 | CC(C)(C)OC(=O)c1ncn2c1CN=C(c1cccc(F)c1)c1ccsc1-2 | 9.61 | 29.5 | 1.9 | 15.6 | 0 | 18.2 | 143.8 | 72.5 | 118.3 | > 80 | 25.9 | 51.4 | 3.5 | 17.5 |  |  |  |  | 
4 | CC(C)(C)OC(=O)c1ncn2c1CN=C(c1ccccc1)c1ccsc1-2 | 5.19 | 33.4 | 2.4 | 17.2 | 20 | 15.4 | 151.4 | 70.3 | 113.6 | > 80 | 28.8 | 46.9 | 4.4 | 15.9 |  |  |  |  | 
5 | CCOC(=O)c1ncn2c1CN=C(c1ccc(F)cc1)c1ccsc1-2 | 16.2 | 34.5 | 2.2 | 14.7 | 0 | 13.9 | 151.2 | 89.2 | 109.8 | > 80 | 29.2 | 55.8 | 5.5 | 15.8 |  |  |  |  | 
6 | CCOC(=O)c1ncn2c1CN=C(c1cccc(F)c1)c1ccsc1-2 | 8.66 | 27.3 | 2.5 | 17.4 | 20 | 14.9 | 163.9 | 75.3 | 111.3 | > 80 | 24.9 | 39.2 | 5.2 | 15.3 |  |  |  |  | 
7 | CN1C(=O)CN=C(c2ccccc2)c2cc(Cl)ccc21 [DIAZEPAM] | 18.5 |  |  |  |  |  |  |  | 165.6 |  |  |  |  |  |  | 100 |  |  | 
8 | CCOC(=O)c1ncn2c1CN(C)C(=O)c1cc(F)ccc1-2 [FLUMAZENIL] |  |  |  |  |  |  |  |  |  |  |  |  |  |  |  |  | 2.3 |  | 
9 | CC(C)(C)OC(=O)c1ncn2c1CN=C(c1ccc(F)cc1)c1ccsc1-2 | 10.2 | 26.7 | 2.1 | 16.5 | 40 | 12.8 | 169.4 | 85.9 | 145.6 | > 80 | 27.2 | 67.1 | 4.7 | 17.5 |  | 20 |  |  | 
10 | CC(N)Cc1ccccc1 (configuration not stated) [AMPHETAMINE] |  |  |  |  |  |  |  |  |  |  |  |  |  |  |  |  |  | 22.2 | 
11 | CCc1cc2c(s1)-n1c(C)nnc1CN=C2c1ccccc1Cl [ETIZOLAM] |  |  |  |  |  |  |  |  |  |  |  |  |  |  |  |  |  |  | 4.5
